Assay results reported in article PMC4018172 (Analytical Chemistry, 2014).

Tested on: phosphorylated PKB (Ser473)
Assay: Western blot of active
Format: cell-based, human
Settings: PANC-1, CFPAC-1 and HPAF-II cell lysates (all three cell lines); 1 μM wortmannin for 10 min prior to lysis

`COC[C@H]1OC(=O)c2coc3c2[C@@]1(C)C1=C(C3=O)[C@@H]2CCC(=O)[C@@]2(C)C[C@H]1OC(C)=O` [wortmannin] was tested, and the “amount of phosphorylated Ser473 (pSer473) of PKB by Western blot” value was “decreased”.
